Residues, ends and D or L forms follow the SMILES beside them. *: point of attachment. Boc = CC(C)(C)OC(=O)*
Assays:
human kallekrein = target: T1, human kallekrein (Homo sapiens, UniProt P03952); test: Kallikrein assay (S-2302 substrate); assay type: biochemical
T1 construct: 50 μL of 4 to 9 nM human kallekrein
Procedure: (§1) The specificity of the peptide aldehydes (8 through 12) was determined in vitro by measurement of their IC50 against other enzymes involved in hemostasis. A specific concentration of enzyme and its substrate were challenged with varying concentrations of inhibitor. […] Specific assay procedures used are presented below.
(§2) 96-well microtiter plates were prepared for use in these assays by incubating each well with 300 μL 1% bovine serum albumin (in deionized water) for 30 minutes at 37° C., then washing three times with deionized water.
(§3) The substrate was made up in deionized water prior to use.

human Factor XIa = target: T2, human Factor XIa (Homo sapiens, UniProt P03951); test: Factor XIa assay (S-2366 substrate); assay type: biochemical
T2 construct: 50 μL of 5 nM human Factor XIa
Procedure: as §1, §2, §3

Factor VIIa:rTF complex = target: T3, Factor VIIa:rTF complex (Homo sapiens, UniProt P08709); test: Factor VIIa assay (S-2288 substrate); assay type: biochemical
T3 construct: 2.5 ml 400 nMhuman Factor VIIa
Procedure: (§4) The specificity of the peptide aldehydes (8 through 12) was determined in vitro by measurement of their IC50 against other enzymes involved in hemostasis. A specific concentration of enzyme and its substrate were challenged with varying concentrations of inhibitor. IC50 is that concentration of inhibitor giving 50% inhibition of substrate turnover, under the assay conditions. Specific assay procedures used are presented below.
as §2
Enzyme activity was determined using as substrate, S-2288 [D-isoleucyl-L-prolyl-L-arginine-p-nitroanilide dihydrochloride], purchased from Kabi Diagnostica. The substrate was made up in deionized water prior to use.
Both solutions were then incubated for 30 minutes at room temperature before use in the assay.
The assay was run by combining in appropriate wells 50 μL inhibitor in TBS or TBS alone and 100 μL of Factor VIIa:rTF complex or background control, incubating this mixture for 30 minutes at room temperature, adding 50 μL of 2 mM S-2288, incubating for an additional 30 to 60 minutes at room temperature, then reading the absorbance of the wells at 405 nm on a microtiter plate reader set with background substraction at 650 nm.

bovine thrombin = target: T4, bovine thrombin (Bos taurus, UniProt P00735); test: Thrombin assay (S-2238 substrate); assay type: biochemical
T4 construct: 50 μL 20 nM bovine thrombin
Procedure: as §4, §2
Enzyme activity was determined using as substrate, S-2238 [D-phenylalanyl-L-pipecolyl-L-arginine-p-nitroanilide dihydrochloride], purchased from Kabi Diagnostica. The substrate was made up in deionized water prior to use.
(§5) The assay was run by combining in appropriate wells 50 μL TBS and 50 μL inhibitor in TBS or TBS alone and 50 μL 20 nM bovine thrombin (or TBS as background control), incubating this mixture for 30 minutes at room temperature, adding 50 μL 1 mM S-2238, incubating for an additional 30 minutes at room temperature, then reading the absorbance of the wells at 405 nm on a microtiter plate reader set with background substraction at 650 nm.

[1] = target: recombinant tissue plasminogen activator (Homo sapiens, UniProt P00750); test: Tissue plasminogen activator assay (S-2288 substrate); assay type: biochemical
Procedure: as §1, §2, §3

human urokinase = target: T5, human urokinase (Homo sapiens, UniProt P00749); test: Urokinase assay (S-2444 substrate); assay type: biochemical
T5 construct: 50 μL of 270 U/mL human urokinase
Procedure: as §4, §2
Enzyme activity was determined using as substrate S-2444 [L-pyroglutamyl-L-glycyl-L-arginine-p-nitroanilide hydrochloride], purchased from Kabi Diagnostica. The substrate was made up in deionized water prior to use.
as §5, with “μL” for “μL TBS and 50 μL”, “of 270 U/mL human urokinase” for “20 nM bovine thrombin”, “control) and 50 μL TBS,” for “control),”, “S-2444,” for “S-2238,”

bovine trypsin = target: T6, bovine trypsin (Bos taurus, UniProt P00760); test: Trypsin assay, IC50 (S-2222 substrate); assay type: biochemical
T6 sequence (P00760 24-246): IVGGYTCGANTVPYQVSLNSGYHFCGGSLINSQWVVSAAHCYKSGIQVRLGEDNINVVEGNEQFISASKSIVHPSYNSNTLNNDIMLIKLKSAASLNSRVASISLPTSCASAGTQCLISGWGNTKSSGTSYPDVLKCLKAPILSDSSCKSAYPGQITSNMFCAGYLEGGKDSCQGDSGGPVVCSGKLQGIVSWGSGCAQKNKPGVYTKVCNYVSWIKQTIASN
Procedure: as §1, §2, §3

[2] = tested on: caerulein-induced pancreatitis in balb/c mice; test: Animal model for pancreatitis: caerulein-induced pancreatitis, serum amylase; assay type: in vivo; settings: caerulein 3 × 100 μg/kg IP, inhibitor 50 mg/kg IP, blood 4 hours after last inhibitor injection, saline + caerulein 64.4 ± 14.4, control 10.4 ± 1.6
Procedure: The efficacy of the compounds of the present invention as a prophylactic treatment for pancreatitis is assessed in vivo using the chemically-induced animal model of Niederau et al., Gastroenterology 88:1192-1204 (1985).
Pancreatitis was induced in fasting male balb/c mice weighing between 18 to 20 g by giving them three IP injections of caerulein, with each dose at 100 μg/kg body weight. The injections of each were given at two hour intervals over a 6 hour period. The ability of N-Boc-L-Asp-Pro-Arg-al (compound 9) to inhibit the induced pancreatitis was tested by injection into caerulein-treated mice. The inhibitor was dissolved into TBS, then injected IP into the mice. The first injection was given 1/4 hour prior to the caerulein treatment, then one hour after each caerulein injection. Inhibitor dose tested was 50 mg/kg body weight.
A blood serum sample was drawn and tested for amylase concentration. The blood sample was obtained by periorbital bleeding into heparized tubes 4 hours after the last injection of inhibitor. After centrifuging to remove the blood cells, the serum was the diluted 1:10 in TBS and assayed with Sigma Diagnostics Amylase reagent. The kinetic change in absorbance was measured at 405 nm for 1 minute, then was convereted into U/ml amylase activity.

plasmin = plasmin (Homo sapiens, UniProt P00747); test: Plasmin assay (S-2251 substrate); assay type: biochemical; set-up: 50 μL 25 nM human plasmin
Procedure: as §1, §2, §3

[3] = 30 min preincubation, room temperature, tested 0.025-25 μM, Inact. = no inhibition at highest concentration
[4] = [IC50 for Trypsin/IC50 for other enzyme]×100, lower = more trypsin selective

T2 sequence (P03951 388-625 limits assumed): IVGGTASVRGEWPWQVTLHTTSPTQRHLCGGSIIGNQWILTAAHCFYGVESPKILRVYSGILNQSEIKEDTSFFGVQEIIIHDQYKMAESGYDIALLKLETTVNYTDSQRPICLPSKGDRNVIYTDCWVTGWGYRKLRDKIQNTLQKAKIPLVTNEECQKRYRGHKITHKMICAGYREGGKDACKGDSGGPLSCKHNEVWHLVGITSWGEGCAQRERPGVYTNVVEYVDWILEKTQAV
T2 sequence (P03951 19-387 partner limits assumed): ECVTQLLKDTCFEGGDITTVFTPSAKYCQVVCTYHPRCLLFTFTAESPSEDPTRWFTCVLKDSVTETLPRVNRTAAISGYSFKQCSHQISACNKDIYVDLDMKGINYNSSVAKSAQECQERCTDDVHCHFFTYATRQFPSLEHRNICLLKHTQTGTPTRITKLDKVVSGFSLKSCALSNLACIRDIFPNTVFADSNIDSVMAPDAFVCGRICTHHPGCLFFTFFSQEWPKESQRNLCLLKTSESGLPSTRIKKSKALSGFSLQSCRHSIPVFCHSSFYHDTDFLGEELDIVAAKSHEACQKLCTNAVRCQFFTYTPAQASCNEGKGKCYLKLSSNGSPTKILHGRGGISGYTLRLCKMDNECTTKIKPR
Sequence of recombinant tissue plasminogen activator (P00750 36-562): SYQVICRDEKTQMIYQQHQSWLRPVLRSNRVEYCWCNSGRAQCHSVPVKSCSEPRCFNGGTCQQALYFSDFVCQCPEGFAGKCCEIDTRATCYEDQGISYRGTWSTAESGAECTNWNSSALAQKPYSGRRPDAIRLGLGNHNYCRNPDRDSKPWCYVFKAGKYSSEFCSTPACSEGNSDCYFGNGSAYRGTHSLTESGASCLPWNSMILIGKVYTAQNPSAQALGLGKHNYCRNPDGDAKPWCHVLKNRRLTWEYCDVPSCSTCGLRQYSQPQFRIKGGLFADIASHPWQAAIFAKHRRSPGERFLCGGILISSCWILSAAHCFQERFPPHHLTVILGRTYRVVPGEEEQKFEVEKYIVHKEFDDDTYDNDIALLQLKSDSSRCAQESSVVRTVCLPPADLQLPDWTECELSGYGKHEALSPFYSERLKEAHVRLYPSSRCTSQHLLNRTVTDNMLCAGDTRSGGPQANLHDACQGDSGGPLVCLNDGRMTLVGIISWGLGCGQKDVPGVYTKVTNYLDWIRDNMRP
T1 sequence (P03952 391-638 limits assumed): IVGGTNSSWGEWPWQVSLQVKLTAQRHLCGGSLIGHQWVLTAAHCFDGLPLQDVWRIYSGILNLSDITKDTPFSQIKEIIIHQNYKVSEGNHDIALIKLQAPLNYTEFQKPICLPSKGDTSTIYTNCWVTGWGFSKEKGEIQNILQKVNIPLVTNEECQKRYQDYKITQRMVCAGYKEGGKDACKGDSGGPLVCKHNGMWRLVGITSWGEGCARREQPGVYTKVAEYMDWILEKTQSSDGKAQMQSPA
T1 sequence (P03952 20-390 partner limits assumed): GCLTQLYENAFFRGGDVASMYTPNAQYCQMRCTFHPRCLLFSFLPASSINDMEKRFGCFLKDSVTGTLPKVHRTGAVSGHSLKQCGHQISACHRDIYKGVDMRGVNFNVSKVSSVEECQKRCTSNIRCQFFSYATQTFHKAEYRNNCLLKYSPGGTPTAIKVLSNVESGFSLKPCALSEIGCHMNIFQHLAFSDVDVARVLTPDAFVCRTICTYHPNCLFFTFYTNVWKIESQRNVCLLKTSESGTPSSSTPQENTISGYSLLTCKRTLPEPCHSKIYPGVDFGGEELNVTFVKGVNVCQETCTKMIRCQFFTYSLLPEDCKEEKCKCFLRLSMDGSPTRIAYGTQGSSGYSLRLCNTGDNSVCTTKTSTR
Sequence of plasmin (P00747 581-810 limits assumed): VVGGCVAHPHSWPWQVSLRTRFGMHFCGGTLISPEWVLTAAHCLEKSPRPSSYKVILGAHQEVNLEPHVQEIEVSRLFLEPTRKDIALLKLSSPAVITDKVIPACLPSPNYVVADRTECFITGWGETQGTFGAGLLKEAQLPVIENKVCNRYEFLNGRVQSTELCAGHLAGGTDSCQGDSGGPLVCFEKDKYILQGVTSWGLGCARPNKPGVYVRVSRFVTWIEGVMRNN
Sequence of plasmin (P00747 97-580 partner limits assumed): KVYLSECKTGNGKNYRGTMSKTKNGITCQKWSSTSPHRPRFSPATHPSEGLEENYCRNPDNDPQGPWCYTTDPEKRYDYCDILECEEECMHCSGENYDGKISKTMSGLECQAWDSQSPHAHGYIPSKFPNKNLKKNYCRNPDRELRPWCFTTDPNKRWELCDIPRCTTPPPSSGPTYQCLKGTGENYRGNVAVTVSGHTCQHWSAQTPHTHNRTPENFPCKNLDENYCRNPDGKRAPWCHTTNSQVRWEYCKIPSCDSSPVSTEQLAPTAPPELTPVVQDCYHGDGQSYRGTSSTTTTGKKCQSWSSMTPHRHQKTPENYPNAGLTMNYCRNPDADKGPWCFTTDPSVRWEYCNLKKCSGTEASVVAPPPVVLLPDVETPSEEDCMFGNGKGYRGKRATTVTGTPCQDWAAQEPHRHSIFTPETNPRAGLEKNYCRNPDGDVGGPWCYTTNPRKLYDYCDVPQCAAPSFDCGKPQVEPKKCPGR
T3 sequence (P08709 213-466 limits assumed): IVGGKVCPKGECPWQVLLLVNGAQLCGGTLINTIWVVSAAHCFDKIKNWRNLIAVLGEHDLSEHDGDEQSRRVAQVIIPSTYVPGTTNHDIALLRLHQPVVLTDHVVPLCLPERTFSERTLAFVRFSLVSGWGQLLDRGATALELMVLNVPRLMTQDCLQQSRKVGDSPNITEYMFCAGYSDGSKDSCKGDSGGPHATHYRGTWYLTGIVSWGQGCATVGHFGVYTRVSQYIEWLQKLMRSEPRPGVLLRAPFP
T3 sequence (P08709 61-212 partner limits assumed): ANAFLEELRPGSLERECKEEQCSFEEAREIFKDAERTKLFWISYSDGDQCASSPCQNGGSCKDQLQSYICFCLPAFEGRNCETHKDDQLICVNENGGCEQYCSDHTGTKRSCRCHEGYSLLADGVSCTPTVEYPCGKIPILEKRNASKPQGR
T3 sequence (P13726 33-295 partner): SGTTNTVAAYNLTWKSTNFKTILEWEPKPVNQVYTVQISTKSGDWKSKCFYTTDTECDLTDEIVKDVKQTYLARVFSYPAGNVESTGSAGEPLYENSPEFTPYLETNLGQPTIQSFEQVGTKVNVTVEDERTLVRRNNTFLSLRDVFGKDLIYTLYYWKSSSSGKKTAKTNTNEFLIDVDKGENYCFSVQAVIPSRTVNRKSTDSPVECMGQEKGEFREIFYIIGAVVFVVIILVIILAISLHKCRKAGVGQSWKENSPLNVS

Compound: CC(C)(C)OC(=O)N[C@@H](CC(=O)O)C(=O)N1CCC[C@H]1C(=O)N[C@H](C=O)CCCNC(=N)N [Compound 9, N-t-butyloxycarbonyl-L-Asp-L-Pro-L-argininal] (Boc-Asp-Pro-Arg-aldehyde)
- IC50 (human kallekrein; [3]): 17 µM
- Calculated % Selectivity Kallikrein (human kallekrein; [4]): 0.08%
- IC50 (human Factor XIa; [3]): 12 µM
- Calculated % Selectivity XIa (human Factor XIa; [4]): 0.12%
- IC50 VIIA (Factor VIIa:rTF complex; [3]): Inact.
- Calculated % Selectivity VIIa (Factor VIIa:rTF complex; [4]): 0%
- IC50 (bovine thrombin; [3]): 17 µM
- Calculated % Selectivity Thrombin (bovine thrombin; [4]): 0.08%
- IC50 tPA [1, 3]: Inact.
- Calculated % Selectivity tPA [1, 4]: 0%
- IC50 (human urokinase; [3]): 25 µM
- Calculated % Selectivity UK (human urokinase; [4]): 0.06%
- IC50 (bovine trypsin; 30 min preincubation, room temperature, tested 0.025-25 μM): 0.014 µM
- Calculated % Selectivity Trypsin (bovine trypsin; trypsin relative to itself (reference, 100 by definition)): 100%
- Amylase Activity, Mean ± S.D [2]: 40.8 ± 5.2 U/ml
- IC50 (plasmin; [3]): 1.4 µM
- Calculated % Selectivity Plasmin (plasmin; [4]): 1%

— patent US5534498A, “Trypsin inhibitors” (Corvas International, Inc., priority 1993, dated 1996)
